Legend:
Assay type in all cases: in vivo
[1] = test system: Echinochloa crusgalli; test: Greenhouse herbicidal activity and crop safety comparison (Test Example 2)
Text: (§1) Pre-emergence: Seeds of gramineous weeds (Echinochloa crusgalli, Echinochloa crusgalli var. zelayensis, Echinochloa phyllopogon, Eleusine indica, Digitaria sanguinalis, Leptochloa chinensis, Setaria viridis, Alopecurus japonicus Steud, Beckmannia syzigachne, Polypogon fugax, Alopecurus aequalis, Lolium multiflorum, Poa annua, Aegilops tataschii, Avena fatua, Alopecurus myosuroides, Bromus japonicus), broadleaf weeds (Eclipta prostrata, Amaranthus retroflexus, Rorippa indica, Myosoton aquaticum, Veronica didyma, Galium aparine, Solanum nigrum, Xanthium sibiricum, Conyza canadensis, Sesbania cannabina, Sagittaria trifolia), and Cyperus iria (Cyperus iria, Scirpus juncoides, Cyperus difformis, etc.) were sown in plastic pots (7 cm diameter) with nutrient soil and bottom holes. Crop seeds (including Oryza sativa subsp. indica, Oryza sativa subsp. japonica, Oryza sativa L. var. Glutinosa matsum, Triticum aestivum, Zea mays, Sorghum bicolor, Setaria italica, Glycine max, Gossypium hirsutum, Brassica napus, Arachis hypogaea) were sown in plastic pots (10 cm diameter) with nutrient soil and bottom holes. After sowing, the seeds were lightly covered with soil, and the soil was moistened via bottom water absorption. The pots were placed in a constant-temperature light-controlled growth chamber for 24 hours before soil spraying. Spraying was performed using a 3WP-2000 walking-type spray tower (produced by the Nanjing Agricultural Mechanization Institute, Ministry of Agriculture) with a spindle speed of 96 mm/r, spray height of 300 mm, effective spray width of 350 mm, spray area of 0.35 m^2, and nozzle flow rate of 390 mL/min.
(§2) After treatment, the test materials were air-dried naturally in the laboratory and then transferred to the growth chamber. Results were assessed 14-30 days later.
(§3) Post-emergence: Seeds of gramineous weeds (Echinochloa crusgalli, Echinochloa crusgalli var. zelayensis, Echinochloa phyllopogon, Eleusine indica, Digitaria sanguinalis, Leptochloa chinensis, Setaria viridis, Alopecurus japonicus Steud, Beckmannia syzigachne, Polypogon fugax, Alopecurus aequalis, Lolium multiflorum, Poa annua, Aegilops tataschii, Avena fatua, Alopecurus myosuroides, Bromus japonicus), broadleaf weeds (Eclipta prostrata, Amaranthus retroflexus, Rorippa indica, Myosoton aquaticum, Veronica didyma, Galium aparine, Solanum nigrum, Xanthium sibiricum, Conyza canadensis, Sesbania cannabina, Sagittaria trifolia), and Cyperus iria (Cyperus iria, Scirpus juncoides, Cyperus difformis, etc.) were sown in plastic pots (7 cm diameter) with nutrient soil and bottom holes. Crop seeds (including Oryza sativa subsp. indica, Oryza sativa subsp. japonica, Oryza sativa L. var. Glutinosa matsum, Triticum aestivum, Zea mays, Sorghum bicolor, Setaria italica, Glycine max, Gossypium hirsutum, Brassica napus, Arachis hypogaea) were sown in plastic pots (10 cm diameter) with nutrient soil and bottom holes. After sowing, the pots were placed in the growth chamber until the plants reached the 3-6 leaf stage for foliar spraying. Post-treatment, the materials were air-dried naturally and returned to the growth chamber. Results were assessed 14-21 days later.
(§4) • A: Fresh weight inhibition rate≥80% to 100%; • B: Fresh weight inhibition rate[…] to <80%; • C: Fresh weight inhibition rate≥40% to <60%; • D: Fresh weight inhibition rate≥20% to <40%; • E: Fresh weight inhibition rate<20%; • NT: Not tested.
(§5) Using the above method, the herbicidal activity and crop safety of the present compounds were compared with structurally similar known compounds (CK1, CK2, CK3, CK4: compounds 4-756, 4-759, 1-557, 1-563 from WO2012028579A1; CK5: compound 290-1 from WO2013087577A1; CK6: compound 1-129 from WO2011035874A1).

[2] = test system: Oryza sativa subsp. indica; test: as above
Text: as §1, §2, §3, §4, §5

[3] = test system: Oryza sativa subsp. japonica; test: as above
Text: as §1, §2, §3, §4, §5

[4] = test system: Echinochloa crusgalli; test: Greenhouse herbicidal activity assay, post-emergence; conditions: Post-emergence test, rate 150 g a.i./hm^2, grade by fresh weight inhibition rate
Procedure, shortened: (§6)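 Graded A (≥80%) to E (<20%) by fresh weight inhibition, read 14-21 days after spraying. Plants were pot-grown in a growth chamber and received foliar application at the 3-6 leaf stage, being air-dried and returned to the chamber afterwards.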

[5] = test system: Leptochloa chinensis; test: as above; conditions: Post-emergence test, rate 150 g a.i./hm^2; grade by fresh weight inhibition rate
Procedure, shortened: as §6

[6] = Echinochloa crus-galli, Rate 75 g/ha, read-out: Echinochloa crusgalli, control efficacy grading (fresh weight inhibition rate)
[7] = Echinochloa crus-galli, Rate 150 g/ha, read-out: Echinochloa crusgalli, control efficacy grading (fresh weight inhibition rate)

Structure (SMILES)	inhibition at 75 g/ha [1, 6]	inhibition at 150 g/ha [1, 7]	Oryza sativa subsp. indica, grading of fresh weight inhibition rate (crop safety) ([2]; Rate 75 g/ha)	Oryza sativa subsp. indica, grading of fresh weight inhibition rate (crop safety) ([2]; Rate 150 g/ha)	Oryza sativa subsp. japonica, grading of fresh weight inhibition rate (crop safety) ([3]; Rate 75 g/ha)	Oryza sativa subsp. japonica, grading of fresh weight inhibition rate (crop safety) ([3]; Rate 150 g/ha)	pest or weed control at 150 g/ha ([4]; Echinochloa crus-galli, read-out: Control efficacy grade, Echinochloa crusgalli)	Echinochloa crusgalli, control efficacy grading (fresh weight inhibition rate) ([1]; Rate 150 g/ha)	Control efficacy grade, Echinochloa crusgalli [4]	Echinochloa crusgalli, control efficacy grading (fresh weight inhibition rate) ([1]; Rate 75 g/ha)	Control efficacy grade, Leptochloa chinensis [5]	Oryza sativa subsp. indica, grading of fresh weight inhibition rate (crop safety) ([2]; Rate 18.75 g/ha)	Oryza sativa subsp. japonica, grading of fresh weight inhibition rate (crop safety) ([3]; Rate 18.75 g/ha)	inhibition at 18.75 g/ha ([1]; Echinochloa crus-galli, Rate 18.75 g/ha, read-out: Echinochloa crusgalli, control efficacy grading (fresh weight inhibition rate))
CCC[S+]([O-])c1c(S(C)(=O)=O)ccc(C(=O)N(C)c2nnc(C)o2)c1Cl (racemic) [Compound 3-787, 2-chloro-N-methyl-N-(5-methyl-1,3,4-oxadiazol-2-yl)-4-(methylsulfonyl)-3-(propylsulfinyl)benzamide]	80 to 100%	80 to 100%	E (Fresh weight inhibition rate<20%)	E (Fresh weight inhibition rate<20%)	E (Fresh weight inhibition rate<20%)	E (Fresh weight inhibition rate<20%)	80 to 100%							
CCC[S+]([O-])c1c(S(C)(=O)=O)ccc(C(=O)N(C)c2nnco2)c1Cl (racemic) [Compound 3-795]				E (Fresh weight inhibition rate<20%)		E (Fresh weight inhibition rate<20%)		A (Fresh weight inhibition rate≥80% to 100%)	A (Fresh weight inhibition rate≥80% to 100%)					
CCC[S+]([O-])c1c(S(C)(=O)=O)ccc(C(=O)N(C)c2nnc(CC)o2)c1Cl (racemic) [Compound 3-798]				E (Fresh weight inhibition rate<20%)		E (Fresh weight inhibition rate<20%)		A (Fresh weight inhibition rate≥80% to 100%)	A (Fresh weight inhibition rate≥80% to 100%)					
CCC[S+]([O-])c1c(S(C)(=O)=O)ccc(C(=O)N(C)c2nnc(C(C)C)o2)c1Cl (racemic) [Compound 3-801]				E (Fresh weight inhibition rate<20%)		E (Fresh weight inhibition rate<20%)		A (Fresh weight inhibition rate≥80% to 100%)						
CC(C)[S+]([O-])c1c(S(C)(=O)=O)ccc(C(=O)N(C)c2nnco2)c1Cl (racemic) [Compound 3-804]				E (Fresh weight inhibition rate<20%)		E (Fresh weight inhibition rate<20%)			A (Fresh weight inhibition rate≥80% to 100%)					
Cc1nnc(N(C)C(=O)c2ccc(S(C)(=O)=O)c([S+]([O-])C(C)C)c2Cl)o1 (racemic) [Compound 3-807]			E (Fresh weight inhibition rate<20%)	E (Fresh weight inhibition rate<20%)	E (Fresh weight inhibition rate<20%)	E (Fresh weight inhibition rate<20%)			A (Fresh weight inhibition rate≥80% to 100%)					
CCc1nnc(N(C)C(=O)c2ccc(S(C)(=O)=O)c([S+]([O-])C(C)C)c2Cl)o1 (racemic) [Compound 3-810]				E (Fresh weight inhibition rate<20%)		E (Fresh weight inhibition rate<20%)			B (Fresh weight inhibition rate≥260% to <80%)					
CCC[S+]([O-])c1c(S(C)(=O)=O)ccc(C(=O)N(C)c2nnc(C)o2)c1Cl (single isomer, unassigned) [Compound 3-788]			E (Fresh weight inhibition rate<20%)	E (Fresh weight inhibition rate<20%)	E (Fresh weight inhibition rate<20%)	E (Fresh weight inhibition rate<20%)		A (Fresh weight inhibition rate≥80% to 100%)	A (Fresh weight inhibition rate≥80% to 100%)	A (Fresh weight inhibition rate≥80% to 100%)	A (Fresh weight inhibition rate≥80% to 100%)			
Cn1nnnc1NC(=O)c1ccc(S(C)(=O)=O)c(S(C)(=O)=O)c1Cl [CK1, reference compound]	80 to 100%	80 to 100%	C (Fresh weight inhibition rate≥40% to <60%)	B (Fresh weight inhibition rate≥260% to <80%)	C (Fresh weight inhibition rate≥40% to <60%)	B (Fresh weight inhibition rate≥260% to <80%)						C (Fresh weight inhibition rate≥40% to <60%)	C (Fresh weight inhibition rate≥40% to <60%)	
CCS(=O)(=O)c1c(S(C)(=O)=O)ccc(C(=O)Nc2nnnn2C)c1Cl [CK2, reference compound]	80 to 100%	80 to 100%	C (Fresh weight inhibition rate≥40% to <60%)	B (Fresh weight inhibition rate≥260% to <80%)	C (Fresh weight inhibition rate≥40% to <60%)	B (Fresh weight inhibition rate≥260% to <80%)						C (Fresh weight inhibition rate≥40% to <60%)	C (Fresh weight inhibition rate≥40% to <60%)	
Cc1nnc(N(C)C(=O)c2ccc(S(C)(=O)=O)c([S+](C)[O-])c2Cl)o1 (centres unmarked) [CK5, reference compound]	< 20%	20 to 40%	E (Fresh weight inhibition rate<20%)	D (Fresh weight inhibition rate≥20% to <40%)	E (Fresh weight inhibition rate<20%)	E (Fresh weight inhibition rate<20%)						E (Fresh weight inhibition rate<20%)	E (Fresh weight inhibition rate<20%)	< 20%
CCCS(=O)(=O)c1c(S(C)(=O)=O)ccc(C(=O)Nc2nnnn2CC)c1Cl [Compound 1-91]				E (Fresh weight inhibition rate<20%)		E (Fresh weight inhibition rate<20%)		A (Fresh weight inhibition rate≥80% to 100%)						
CCn1nnnc1NC(=O)c1ccc(S(C)(=O)=O)c(S(=O)(=O)C(C)C)c1Cl [Compound 1-96, 2-chloro-N-(1-ethyl-1H-tetrazol-5-yl)-3-(isopropylsulfonyl)-4-(methylsulfonyl)benzamide]		80 to 100%		E (Fresh weight inhibition rate<20%)		E (Fresh weight inhibition rate<20%)								
